Key:
[1] = molecular target: Ba/F3 EGFR-D770-N771ins_SVD (Homo sapiens, UniProt P00533, DUP768-770, cells depend on it); assay: Cell proliferation assay (CellTiter-Glo), Ba/F3 EGFR-D770-N771ins_SVD cells; format: cell-based; conditions: 72 hrs, CTG assay, * = average of multiple measurements, read-out: Ba/F3 EGFR-D770-N771ins_SVD (nM), IC50 of cell proliferation
Description: (§1) I. Cell proliferation assay (i) Reagents and consumables • Fetal bovine serum (FBS) (GBICO, Cat #10099-141); • CellTiter-Glo® Luminescent Cell Viability Assay Kit (Promega, Cat #G7572); • Black transparent flat-bottomed 96-well plate (Corning®, Cat #3603).
(§2) • SpectraMax Multi-Label Microplate Detector MD, 2104-0010A; • CO2 incubator, Thermo Scientific 3100 Series; • Biosafety cabinet, Thermo Scientific, 1300 Series type A2; • Inverted microscope, Olympus, CKX41SF; • Siemens refrigerator KK25E76TI. (iii) Cell lines and culture conditions
(§3) (iv) Experimental procedures 1. Cell culture and seeding: • (1) Cells in the logarithmic growth phase were harvested, and counted using a platelet counter. Cell viability was detected by the trypan blue exclusion assay to ensure that the cell viability was above 90%. • (2) The cell concentration was adjusted to achieve the final density; and 90 μL of the cell suspension was added to the 96-well plate. • (3) The cells were incubated in the 96-well plate overnight at 37° C. in the presence of 5% CO2 with 95% humidity. 2. TO benchmark data: • (1) 10 μL of PBS was added to each well of the TO flat plate containing the cells. • (2) The CTG reagent was thawed, and the cell plate was equilibrated to room temperature for 30 min. • (3) An equal volume of CTG solution was added to each well. • (4) The cells were shaken for 5 min on an orbital shaker for lysis. • (5) The cell plate was left at room temperature for 20 min to stabilize luminescent signals. • (6) The values of TO luminescent signals were read. 3. Compound dilution and addition • (1) According to the compound information table, a corresponding volume of DMSO was added to the corresponding compound powder to prepare a 10 mM stock solution. • (2) Compound solutions diluted at 1000 fold and 3.16 fold were prepared. • (3) The compound solution diluted at 1000 fold was diluted at 100 fold with PBS, to prepare the compound solutions at 10 fold in 9 concentrations, with the maximum concentration of […]; and the compound solution was diluted at 3.16 fold. 10 μL of medicament solution was added to each well of the seeded 96-well plate. Three replicate wells were provided for each concentration of the compound, and the final concentration of DMSO was 0.1%. • (4) Cells were placed in the 96-well plate containing the medicament and subsequently cultured for 72 hrs at 37° C. in the presence of 5% CO2 with 95% humidity, and then, CTG assay was conducted. 4. Reading of luminescent signals • (1) The CTG reagent was thawed, and the cell plate was equilibrated to room temperature for 30 min. • (2) An equal volume of CTG solution was added to each well. • (3) The cells were shaken for 5 min on an orbital shaker for lysis.
(§4) (4) The cell plate was left at room temperature for 20 min to stabilize the luminescent signals. • (5) Luminescent values were read. Data processing
(§5) The data were analyzed using software GraphPad Prism 7.0, and fitted by the nonlinear S-curve regression to obtain a dose-effect curve, based on which the IC50 value (unit: nM) was calculated, with the specific test results shown in Table 1.
(§6) Cell viability (%)=(Lum test medicament-Lum culture medium control)/(Lum cell control-Lum culture medium control)×100%.

[2] = molecular target: Ba/F3 EGFR-V769_D770insASV (Homo sapiens, UniProt P00533, DUP767-769, cells depend on it); assay: Cell proliferation assay (CellTiter-Glo), Ba/F3 EGFR-V769_D770insASV cells; format: cell-based; conditions: 72 hrs, CTG assay, * = average of multiple measurements, read-out: Ba/F3 EGFR-V769_D770insASV (nM), IC50 of cell proliferation
Description: as §1, §2, §3, §4, §5, §6

Chain of Ba/F3 EGFR-V769_D770insASV (P00533 with tags, fused parts or gaps DUP767-769): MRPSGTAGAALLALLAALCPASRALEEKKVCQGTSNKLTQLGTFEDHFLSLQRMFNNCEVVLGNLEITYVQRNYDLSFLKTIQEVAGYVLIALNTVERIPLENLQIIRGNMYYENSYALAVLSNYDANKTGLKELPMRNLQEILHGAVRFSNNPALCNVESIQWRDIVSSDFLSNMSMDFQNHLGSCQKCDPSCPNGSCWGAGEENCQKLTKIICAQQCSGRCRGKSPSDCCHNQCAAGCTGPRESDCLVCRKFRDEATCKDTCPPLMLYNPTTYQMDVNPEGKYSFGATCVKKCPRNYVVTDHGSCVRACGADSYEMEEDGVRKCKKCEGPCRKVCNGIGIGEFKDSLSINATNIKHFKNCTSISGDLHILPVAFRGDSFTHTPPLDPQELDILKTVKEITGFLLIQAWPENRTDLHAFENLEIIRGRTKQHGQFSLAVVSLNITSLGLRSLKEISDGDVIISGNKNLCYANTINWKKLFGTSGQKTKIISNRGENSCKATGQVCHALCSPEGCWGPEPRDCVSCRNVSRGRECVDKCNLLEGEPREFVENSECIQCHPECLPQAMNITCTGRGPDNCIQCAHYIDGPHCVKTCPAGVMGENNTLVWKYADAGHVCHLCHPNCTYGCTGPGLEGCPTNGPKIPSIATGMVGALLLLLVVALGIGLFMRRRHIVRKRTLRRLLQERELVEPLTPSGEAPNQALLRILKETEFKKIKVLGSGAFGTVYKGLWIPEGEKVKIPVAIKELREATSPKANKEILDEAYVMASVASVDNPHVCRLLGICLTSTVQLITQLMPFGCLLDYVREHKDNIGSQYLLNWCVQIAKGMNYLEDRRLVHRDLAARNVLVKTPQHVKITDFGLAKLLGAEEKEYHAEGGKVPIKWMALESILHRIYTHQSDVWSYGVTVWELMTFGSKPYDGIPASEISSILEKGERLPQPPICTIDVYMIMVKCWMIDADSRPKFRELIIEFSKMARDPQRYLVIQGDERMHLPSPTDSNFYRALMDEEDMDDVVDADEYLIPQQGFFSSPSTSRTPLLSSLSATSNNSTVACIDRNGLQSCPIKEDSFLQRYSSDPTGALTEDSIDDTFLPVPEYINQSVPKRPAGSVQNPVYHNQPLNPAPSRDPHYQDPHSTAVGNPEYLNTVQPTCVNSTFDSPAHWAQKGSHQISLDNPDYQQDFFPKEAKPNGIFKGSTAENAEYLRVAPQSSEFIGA
Chain of Ba/F3 EGFR-D770-N771ins_SVD (P00533 with tags, fused parts or gaps DUP768-770): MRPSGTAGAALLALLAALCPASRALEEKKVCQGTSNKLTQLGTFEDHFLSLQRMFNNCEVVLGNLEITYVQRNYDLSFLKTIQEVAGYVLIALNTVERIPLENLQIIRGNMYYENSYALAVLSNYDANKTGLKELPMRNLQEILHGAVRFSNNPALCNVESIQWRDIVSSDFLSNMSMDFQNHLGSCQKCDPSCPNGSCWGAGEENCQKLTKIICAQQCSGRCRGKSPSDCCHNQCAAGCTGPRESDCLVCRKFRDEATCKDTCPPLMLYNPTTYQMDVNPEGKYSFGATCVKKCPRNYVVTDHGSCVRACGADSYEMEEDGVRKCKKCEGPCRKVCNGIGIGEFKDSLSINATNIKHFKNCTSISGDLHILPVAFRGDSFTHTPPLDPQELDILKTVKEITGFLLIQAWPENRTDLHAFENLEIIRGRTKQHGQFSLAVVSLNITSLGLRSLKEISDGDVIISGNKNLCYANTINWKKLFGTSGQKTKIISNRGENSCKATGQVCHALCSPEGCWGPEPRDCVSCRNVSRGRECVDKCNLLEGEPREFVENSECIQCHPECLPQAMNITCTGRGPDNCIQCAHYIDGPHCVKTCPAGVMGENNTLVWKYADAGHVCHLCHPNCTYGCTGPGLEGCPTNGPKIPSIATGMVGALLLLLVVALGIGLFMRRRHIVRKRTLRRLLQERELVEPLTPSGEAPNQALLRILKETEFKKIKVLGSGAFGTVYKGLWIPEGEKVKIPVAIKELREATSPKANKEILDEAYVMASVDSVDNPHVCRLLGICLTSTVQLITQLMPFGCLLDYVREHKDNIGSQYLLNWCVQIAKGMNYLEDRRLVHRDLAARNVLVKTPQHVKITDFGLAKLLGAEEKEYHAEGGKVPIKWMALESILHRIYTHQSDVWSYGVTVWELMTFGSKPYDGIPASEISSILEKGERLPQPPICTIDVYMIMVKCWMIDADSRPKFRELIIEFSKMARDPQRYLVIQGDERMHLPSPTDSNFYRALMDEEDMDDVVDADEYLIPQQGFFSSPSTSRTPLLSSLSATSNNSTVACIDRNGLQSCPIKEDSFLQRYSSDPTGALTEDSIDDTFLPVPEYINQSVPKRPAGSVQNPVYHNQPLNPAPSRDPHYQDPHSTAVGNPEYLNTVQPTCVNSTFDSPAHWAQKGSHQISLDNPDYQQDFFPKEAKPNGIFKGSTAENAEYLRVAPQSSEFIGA

Row | Compound | GI50 [1] [nM] | GI50 [2] [nM]
1 | C=CC(=O)Nc1cc(Nc2nccc(N3CC(C)(C)c4nc(C)c(C)cc43)n2)c(OC(C)C)cc1N(C)CCN(C)C [Example 43, N-(2-((2-(dimethylamino)ethyl) (methyl)amino)-4-isopropoxy-5-((4-(3,3,5,6-tetramethyl-2,3-dihydro-1H-pyrrolo[3,2-b]pyridin-1-yl)pyrimidin-2-yl)amino)phenyl)acrylamide] | 38.5 | 
2 | C=CC(=O)Nc1cc(Nc2nccc(N3CC(C)(C)c4nc(C)c(C)cc43)n2)c(OCC)cc1N(C)CCN(C)C [Example 27] | 31.5 | 68.8
3 | C=CC(=O)Nc1cc(Nc2nccc(N3CC4(CCOCC4)c4nc(C)ccc43)n2)c(OC)cc1N(C)CCN(C)C [Example 65] | 108 | 
4 | C=CC(=O)Nc1cc(Nc2nccc(N3CC4(CN(C)C4)c4nc(C)ccc43)n2)c(OC)cc1N(C)CCN(C)C [Example 73, N-(2-((2-(dimethylamino)ethyl) (methyl)amino)-5-((4-(1,5′-dimethyl-spiro[azetidine-3,3′-pyrrolo[3,2-b]pyridin]-1′(2′H)-yl)pyrimidin-2-yl)amino)-4-methoxyphenyl) acrylamide] | 811 | 
5 | C=CC(=O)Nc1cc(Nc2ncnc(N3CC(C)(C)c4nc(C)ccc43)n2)c(OCC)cc1N(C)CCN(C)C [Example 25, N-(2-((2-(dimethylamino)ethyl) (methyl)amino)-4-ethoxy-5-((4-(3,3,5-trimethyl-2,3-dihydro-1H-pyrrolo[3,2-b]pyridin-1-yl)-1,3,5-triazin-2-yl)amino)phenyl)acrylamide] | 56.5 | 106
6 | C=CC(=O)Nc1cc(Nc2ncnc(N3CC(C)(C)c4nc(C)ccc43)n2)c(OC(C)C)cc1N(C)CCN(C)C [Example 37, N-(2-((2-(dimethylamino)ethyl) (methyl)amino)-4-isopropoxy-5-((4-(3,3,5-trimethyl-2,3-dihydro-1H-pyrrolo[3,2-b]pyridin-1-yl)-1,3,5-triazin-2-yl)amino)phenyl)acrylamide] | 92.2 | 159
7 | C=CC(=O)Nc1cc(Nc2nccc(N3CC(C)(C)c4nc5c(cc43)CCC5)n2)c(OC)cc1N(C)CCN(C)C [Example 23, N-(5-((4-(3,3-dimethyl-3,5,6,7-tetrahydrocyclopenta[b]pyrrolo[2,3-e]pyridin-1(2H)-yl)pyrimidin-2-yl)amino)-2-((2-(dimethylamino)ethyl)(methyl)amino)-4-methoxy-phenyl)acrylamide] | 13.8 | 26.6
8 | C=CC(=O)Nc1cc(Nc2nccc(N3CC4(CCCCC4)c4nc(C)ccc43)n2)c(OC(F)F)cc1N(C)CCN(C)C [Example 36, N-(4-(difluoromethoxy)-2-((2-(dimethylamino)ethyl)(methyl)amino)-5-((4-(5′-methylspiro[cyclohexane-1,3′-pyrrolo[3,2-b]pyridin]-1′(2′H)-yl)pyrimidin-2-yl)amino)phenyl)acrylamide] | 33.2 | 51.5
9 | C=CC(=O)Nc1cc(Nc2cc(N3CC(C)(C)c4nc(C)c(C)cc43)ncn2)c(OCC)cc1N(C)CCN(C)C [Example 35, N-(2-((2-(dimethylamino)ethyl) (methyl)amino)-4-ethoxy-5-((6-(3,3,5,6-tetramethyl-2,3-dihydro-1H-pyrrolo[3,2-b]pyridin-1-yl)pyrimidin-4-yl)amino)phenyl)acrylamide] | 40.1 | 94.8
10 | C=CC(=O)Nc1cc(Nc2cc(N3CC(C)(C)c4nc(-c5cnn(C)c5)ccc43)ccn2)c(OC)cc1N(C)CCN(C)C [Example 67, N-(5-((4-(3,3-dimethyl-5-(1-methyl-1H-pyrazol-4-yl)-2,3-dihydro-1H-pyrrolo[3,2-b]pyridin-1-yl)pyridin-2-yl)amino)-2-((2-(dimethyl-amino)ethyl)(methyl)amino)-4-methoxyphenyl)acrylamide] | 108 | 
11 | C=CC(=O)Nc1cc(Nc2cc(N3CC(C)(C)c4nc(-c5cnn(C)c5)ccc43)ncn2)c(OC)cc1N(C)CCN(C)C [Example 66, N-(5-((6-(3,3-dimethyl-5-(1-methyl-1H-pyrazol-4-yl)-2,3-dihydro-1H-pyrrolo[3,2-b]pyridin-1-yl)pyrimidin-4-yl)amino)-2-((2-(dimethylamino)ethyl)(methyl)amino)-4-methoxyphenyl)acrylamide] | 89.1 | 
12 | C=CC(=O)Nc1cc(Nc2nccc(N3CC(C)(C)c4nc(C)ccc43)n2)c(OC(C)C)cc1N(C)CCN(C)C [Example 38, N-(2-((2-(dimethylamino)ethyl) (methyl)amino)-4-isopropoxy-5-((4-(3,3,5-trimethyl-2,3-dihydro-1H-pyrrolo[3,2-b]pyridin-1-yl)pyrimidin-2-yl)amino)phenyl)acrylamide] | 124 | 266
13 | C=CC(=O)Nc1cc(Nc2nccc(N3CC4(CCCC4)c4nc(C)ccc43)n2)c(OCC(F)(F)F)cc1N(C)CCN(C)C [Example 40] | 37 | 
14 | C=CC(=O)Nc1cc(Nc2cc(N3CC(C)(C)c4nc(C5CC5)ccc43)ncn2)c(OC)nc1N(C)CCN(C)C [Example 70, N-(5-((6-(5-cyclopropyl-3,3-dimethyl-2,3-dihydro-1H-pyrrolo[3,2-b]pyridin-1-yl)pyrimidin-4-yl)amino)-2-((2-(dimethylamino)ethyl) (methyl)amino)-6-methoxypyridin-3-yl)acrylamide] | 121 | 
15 | C=CC(=O)Nc1cc(Nc2nccc(N3CC4(CC(F)(F)C4)c4nc(C)ccc43)n2)c(OC)cc1N(C)CCN(C)C [Example 74, N-(5-((4-(3,3-difluoro-5′-methyl-spiro[cyclobutane-1,3′-pyrrolo[3,2-b]pyridin]-1′(2′H)-yl)pyrimidin-2-yl)amino)-2-((2-(dimethylamino)ethyl)(methyl)amino)-4-methoxy-phenyl)acrylamide] | 83.6 | 
16 | C=CC(=O)Nc1cc(Nc2nccc(N3CC(C)(C)c4nc(-c5cn[nH]c5)ccc43)n2)c(OC)cc1N(C)CCN(C)C [Example 58, N-(5-((4-(3,3-dimethyl-5-(1H-pyrazol-4-yl)-2,3-dihydro-1H-pyrrolo[3,2-b]pyridin-1-yl)pyrimidin-2-yl)amino)-2-((2-(dimethylamino)ethyl)(methyl)amino)-4-methoxyphenyl)acrylamide] | 68.2 | 
17 | C=CC(=O)Nc1cc(Nc2nccc(N3CC4(CCN(C)C4)c4nc(C)ccc43)n2)c(OC)cc1N(C)CCN(C)C (centres unmarked) [Example 71, N-(2-((2-(dimethylamino)ethyl) (methyl)amino)-5-((4-(1,5′-dimethyl-spiro[pyrrolidin-3,3′-pyrrolo[3,2-b]pyridin]-1′(2′H)-yl)pyrimidin-2-yl)amino)-4-methoxyphenyl) acrylamide] | 372 | 
18 | C=CC(=O)Nc1cc(Nc2ncnc(N3CC4(CCN(C)C4)c4nc(C)ccc43)n2)c(OC)cc1N(C)CCN(C)C (centres unmarked) [Example 72, N-(2-((2-(dimethylamino)ethyl) (methyl)amino)-5-((4-(1,5′-dimethyl-spiro[pyrrolidin-3,3′-pyrrolo[3,2-b]pyridin]-1′(2′H)-yl)-1,3,5-triazin-2-yl)amino)-4-methoxyphenyl) acrylamide] | 298 | 
19 | C=CC(=O)Nc1cc(Nc2ncnc(N3CC(C)(C)c4nc(Br)ccc43)n2)c(OC)cc1N(C)CCN(C)C [Example 41, N-(5-((4-(5-bromo-3,3-dimethyl-2,3-dihydro-1H-pyrrolo[3,2-b]pyridin-1-yl)-1,3,5-triazin-2-yl)amino)-2-((2-(dimethylamino)ethyl) (methyl)amino)-4-methoxyphenyl) acrylamide] | 35.5 | 

— patent US20240109885A1, “2,3-DIHYDRO-1H-PYRROLO[3,2-B]PYRIDINE DERIVATIVE, PREPARATION METHOD THEREFOR, AND APPLICATION THEREOF” (Abbisko Therapeutics Co., Ltd, priority 2020, published 2024)
